Assay results reported in patent US7388017B2, “Inhibitors of serine proteases, particularly hepatitis C virus NS3 protease” (Vertex Pharmaceuticals Incorporated, priority 1996, dated 2008).
pKi: −log10 of the molar value. Starred links: 1 amine or outer side, 2 acyl side, 3 side chain; linkers in the order of their positions; H or OH if unused. Non-standard residues stand in square brackets, D forms with d. Residues, ends and D or L forms follow the SMILES beside them. ξ: configuration not given here. X45 = O=C([C@@H]1C2CC2CN1[*:1])[*:2]; ξAbu = CCC(N)C(=O)O

These compounds were tested against T1, HCV NS3 protease (Hepatitis C virus genotype 1a, UniProt P27958) (assay: Enzyme inhibition of HCV NS3 serine protease (cleavage of peptide substrate / EDVV AbuC-p-nitroanilide, with or without NS4A)). Conditions: Enzyme inhibition data; Ki from rate vs [inhibitor] plots, Morrison tight binding competitive inhibition fit; 30 C, pH 7.8; read-out: Ki.
T1 construct: more particularly HCV NS3 proteases
T1 sequence (P27958 1027-1208): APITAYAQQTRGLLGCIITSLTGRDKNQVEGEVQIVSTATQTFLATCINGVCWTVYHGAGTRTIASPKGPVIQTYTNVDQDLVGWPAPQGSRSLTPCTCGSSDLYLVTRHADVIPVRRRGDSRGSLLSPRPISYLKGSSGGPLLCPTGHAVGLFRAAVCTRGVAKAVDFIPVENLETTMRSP
Assay type: biochemical
Method in brief: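 Spectrophotometric assay at 30 °C following pNA release at 405 nm from EDVV AbuC-pNA substrate, with or without NS4A. Ki from rate versus [inhibitor] fitted to Morrison's tight-binding competitive inhibition equation; Kii/Kis from mixed-inhibition fits; values reported in μM.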
In the case of `CCC(C=O)NC(=O)C1CC(OCc2ccccc2)CN1C(=O)C(NC(=O)c1c(O)ccc2ccccc12)C(C)C` (stereo not drawn) [Compound 168], the pKi was 4.00 to 6.00.
For `CCC(C=O)NC(=O)C1CC(OCc2ccccc2)CN1C(=O)C(NC(=O)COc1ccccc1C=O)C(C)C` (stereo not drawn) [Compound 169], the pKi was < 4.00.
With `CCC(C=O)NC(=O)C1CC(OCc2ccccc2)CN1C(=O)C(NC(=O)CCC(=O)c1ccccc1)C(C)C` (stereo not drawn) [Compound 170] the pKi was < 4.00.
In the case of `CCC(C=O)NC(=O)C1CC(OCc2ccccc2)CN1C(=O)C(NC(=O)CCOc1ccccc1)C(C)C` (stereo not drawn) [Compound 171], the pKi was < 4.00.
For `CCCCC(C(=O)O)C(=O)NC(C(=O)N1CC(OCc2ccccc2)CC1C(=O)NC(C=O)CC)C(C)C` (stereo not drawn) [Compound 172], the pKi was < 4.00.
With `CCCC(C(=O)NC(C(=O)N1CC(OCc2ccccc2)CC1C(=O)NC(C=O)CC)C(C)C)c1ccccc1` (stereo not drawn) [Compound 174] the pKi was 4.00 to 6.00.
Compound `CCC(C=O)NC(=O)C1CC(OCc2ccccc2)CN1C(=O)C(NC(=O)c1c[nH]c2ccccc12)C(C)C` (stereo not drawn) [Compound 175] has a pKi of 4.00 to 6.00.
In the case of `CCC(C=O)NC(=O)C1CC(OCc2ccccc2)CN1C(=O)C(NC(=O)C1CCCC1c1ccccc1)C(C)C` (stereo not drawn) [Compound 177], the pKi was < 4.00.
For `CCC(C=O)NC(=O)C1CC(OCc2ccccc2)CN1C(=O)C(NC(=O)c1c(-c2ccccc2Cl)noc1C)C(C)C` (stereo not drawn) [Compound 182], the pKi was < 4.00.
`CCC(C=O)NC(=O)C1CC(OCc2ccccc2)CN1C(=O)C(NC(=O)c1c2c(nc3ccccc13)CCCC2)C(C)C` (stereo not drawn) [Compound 183] showed a pKi of 4.00 to 6.00.
With `CCC(C=O)NC(=O)C1CC(OCc2ccccc2)CN1C(=O)C(NC(=O)c1c(-c2c(Cl)cccc2Cl)noc1C)C(C)C` (stereo not drawn) [Compound 186] the pKi was < 4.00.
With `CCC(C=O)NC(=O)C1CC(OCc2ccccc2)CN1C(=O)C(NC(=O)c1cc(C)oc1C)C(C)C` (stereo not drawn) [Compound 189] the pKi was < 4.00.
`CCC(C=O)NC(=O)C1CC(OCc2ccccc2)CN1C(=O)C(NC(=O)c1c(C)cc(C)cc1C)C(C)C` (stereo not drawn) [Compound 191] was tested, and the pKi was < 4.00.
`CCC(C=O)NC(=O)C1CC(OCc2ccccc2)CN1C(=O)C(NC(=O)c1cccc(C)c1O)C(C)C` (stereo not drawn) [Compound 192] was tested, and the pKi was < 4.00.
For `CCC(C=O)NC(=O)C1CC(OCc2ccccc2)CN1C(=O)C(NC(=O)c1c(C)cccc1C)C(C)C` (stereo not drawn) [Compound 193], the pKi was < 4.00.
`CCC(C=O)NC(=O)C1CC(OCc2ccccc2)CN1C(=O)C(NC(=O)c1ccccc1Br)C(C)C` (stereo not drawn) [Compound 195] was tested, and the pKi was 4.00 to 6.00.
With `CCOc1ccc2ccccc2c1C(=O)NC(C(=O)N1CC(OCc2ccccc2)CC1C(=O)NC(C=O)CC)C(C)C` (stereo not drawn) [Compound 197] the pKi was 4.00 to 6.00.
With `CCC(C=O)NC(=O)[C@@H]1C2CC2CN1C(=O)[C@@H](NC(=O)[C@@H](NC(=O)[C@H](CC(=O)O)NC(=O)[C@H](CCC(=O)O)NC(C)=O)C(C)C)C(C)C` (stereo partly drawn) [Compound 198] (Ac-EDVV[X45][ξAbu]-aldehyde) the pKi was > 6.00.
